Target: T1, 11β-HSD2 (Homo sapiens, UniProt P80365)
T1 construct: gene HSD11B2
T1 sequence (P80365 1-405): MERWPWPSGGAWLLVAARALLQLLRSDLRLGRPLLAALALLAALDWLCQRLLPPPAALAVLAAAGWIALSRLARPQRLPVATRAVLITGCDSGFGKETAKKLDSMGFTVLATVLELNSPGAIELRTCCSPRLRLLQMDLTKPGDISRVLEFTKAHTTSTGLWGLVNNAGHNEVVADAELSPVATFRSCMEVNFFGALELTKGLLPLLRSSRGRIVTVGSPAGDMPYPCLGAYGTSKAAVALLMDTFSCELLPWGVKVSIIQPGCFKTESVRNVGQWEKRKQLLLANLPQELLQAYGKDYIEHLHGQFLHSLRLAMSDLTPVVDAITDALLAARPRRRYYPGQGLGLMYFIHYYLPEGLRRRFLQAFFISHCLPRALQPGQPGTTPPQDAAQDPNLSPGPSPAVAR
Experiment: % inhibition at […], human kidney microsomes, cortisol ELISA
Format: cell-based
Details: read-out: % of 11β-HSD2 Inhibition 10 μM/IC50 [μM] ^a

SMILES: CCC1SC(NC(C)C)=NC1=O (stereo not shown) [3b, 5-Ethyl-2-(isopropylamino)thiazol-4(5H)-one]
- inhibition at 10 µM: 47.1 ± 2.51%

Reference: paper PMC7570983, “Synthesis of Novel 2-(Isopropylamino)thiazol-4(5H)-one Derivatives and Their Inhibitory Activity of 11β-HSD1 and 11β-HSD2 in Aspect of Carcinogenesis Prevention” (Molecules, 2020)
